Patent publication US9545445B2, “Therapeutic drug for hypertension or prehypertension” (Teijin Pharma Limited, priority 2009, dated 2017)

Tested on: SHRs (Spontaneously Hypertensive Rats)
Assay: Systolic blood pressure of spontaneously hypertensive rats by Tail-Cuff method after administration in drinking water
Assay type: in vivo, rat
From the text: In this case, losartan (an angiotensin-receptor antagonist), enalapril (an angiotensin-converting enzyme inhibitor), amlodipine (a calcium channel blocker), and diltiazem (a calcium channel blocker) were used as representative examples of the antihypertensive agent (b). Twelve-week-old male SHRs (Spontaneously Hypertensive Rats) were used for experiment after subjecting them to quarantine for 1 week or more. At 15 or 16 weeks old, the SHRs were trained for blood pressure measurement with a Tail-Cuff method sphygmomanometer (BP-2000, Visitech systems, Napa Place, N.C., USA) for 1 to 2 weeks. After completing the training, they underwent blood pressure measurement at 17 to 18 weeks old. The animals were divided into 4 groups (10 for each) by taking care not to cause a bias in the systolic blood pressure, and the drug administration was started. Tap water was administered to a first group as a control group. A solution of each test material dissolved in tap water was administered to second to fourth groups. That is, febuxostat was administered to the second group, each antihypertensive agent of losartan, enalapril, amlodipine or diltiazem to the third group, and the mixture of febuxostat and the antihypertensive agents administered to the third group as combined administration to the fourth group. The dose of each agent was calculated from the concentration in the solution, the amount of drinking water, and the weight of the rats. After administration was carried out for 2 to 6 weeks, the value of their systolic blood pressure were measured by Tail-Cuff method.

[1] = male SHR, before administration (baseline of the group), Table 3 study, each agent 3 mg/kg/day
[2] = male SHR, 14th day after administration, each agent 3 mg/kg/day in tap water, alone or combined, Table 1 study (tap water group 233 ± 4)
[3] = male SHR, 42nd day after administration, each agent 3 mg/kg/day in tap water, alone or combined, Table 2 study (tap water group 226 ± 4)
[4] = male SHR, before administration (baseline of the group), Table 1 study, each agent 3 mg/kg/day
[5] = male SHR, before administration (baseline of the group), Table 2 study, each agent 3 mg/kg/day

Row | Structure (SMILES) | systolic blood pressure (mean value±standard error) [1] [mmHg] | systolic blood pressure (mean value±standard error) [2] [mmHg] | systolic blood pressure (mean value±standard error) [3] [mmHg] | systolic blood pressure (mean value±standard error) [4] [mmHg] | systolic blood pressure (mean value±standard error) [5] [mmHg] | also measured
1 | CCOC(=O)C1=C(COCCN)NC(C)=C(C(=O)OC)C1c1ccccc1Cl (centres unmarked) [amlodipine] | 228 ± 3 | – | – | – | – | systolic blood pressure (mean value±standard error) (rat, in vivo): 219 ± 3 mmHg
2 | Cc1nc(-c2ccc(OCC(C)C)c(C#N)c2)sc1C(=O)O [febuxostat, 2-(3-cyano-4-isobutyloxyphenyl)-4-methyl-5-thiazolecarboxylic acid] | 228 ± 4 | 219 ± 4 | 213 ± 5 | 230 ± 4 | 230 ± 3 | systolic blood pressure (mean value±standard error) (male SHR, 14th day after administration, each agent 3 mg/kg/day in tap water, alone or combined, Table 3 study (tap water group 229 ± 3)): 215 ± 4 mmHg; systolic blood pressure (mean value±standard error) (male SHR, 42nd day after administration, febuxostat 3 mg/kg/day in tap water, Table 4 study (tap water group 233 ± 3)): 227 ± 4 mmHg; antihypertensive action (result in words) (male SHR, administration for 2 to 6 weeks in drinking water): antihypertensive action; systolic blood pressure (mean value±standard error) (male SHR, before administration (baseline of the group), Table 4 study, febuxostat 3 mg/kg/day): 230 ± 5 mmHg
3 | CCCCc1nc(Cl)c(CO)n1Cc1ccc(-c2ccccc2-c2nn[nH]n2)cc1 [losartan] | – | 215 ± 2 | – | 232 ± 4 | – | –
4 | COc1ccc([C@@H]2Sc3ccccc3N(CCN(C)C)C(=O)[C@@H]2OC(C)=O)cc1 [diltiazem] | – | – | – | – | – | systolic blood pressure (mean value±standard error) (male SHR, 42nd day after administration, diltiazem 100 mg/kg/day in tap water, Table 4 study (tap water group 233 ± 3)): 231 ± 4 mmHg; systolic blood pressure (mean value±standard error) (male SHR, before administration (baseline of the group), Table 4 study, diltiazem 100 mg/kg/day): 229 ± 4 mmHg
5 | CCOC(=O)[C@H](CCc1ccccc1)N[C@@H](C)C(=O)N1CCC[C@H]1C(=O)O [enalapril] | – | – | 220 ± 5 | – | 232 ± 5 | –
